“And” between values parts separate entries of the source, which are not always exact repeats. Equal entries are not always repeated. Where two headings read alike, the source gives them in different places.
Key:
[1] = test system: P. falciparum Dd2 Cytb A122D; experiment: SYBR Green ABS proliferation assay, NCGC00473217 selected clone F12; type: cell-based, Plasmodium falciparum; conditions: Plasmodium falciparum
Procedure: (§1) As resistance selection studies implicated the parasite cytochrome bc1 complex in mediating reduced parasite susceptibility to both NCGC00473217 and NCGC00374598, we leveraged these drug-selected parasites to test for altered drug response to a panel of antimalarial compounds.
(§2) The P. falciparum parasite Dd2 line was cultured in vitro using standard conditions. […] Tissue culture flasks and assay plates were incubated at 37 °C under a gas mixture of 5% CO2, 5% O2 and 90% N2. […] Significant differences were assessed using two-sided Student’s t-tests. All HTS assays were stopped and read at 72 h. Percent response values represent relative growth as judged by SYBR Green-I fluorescence intensity values normalized to controls.
(§3) Fresh uninfected RBCs (0.5% hematocrit) were added on day 7 and media was changed every other day. […] Resistant parasites were maintained under drug media at a volume of 50 mL until a high parasitemia (> 5%) was achieved. Aliquots of the bulk resistant cultures were frozen in cryovials before cloning by limiting dilution in 96-well plates (seeded at 0.25 or 0.5 parasites/well)[70]. After 3 weeks of cloning, we screened for positive wells by flow cytometry with SYBR Green-stained cells. […] Parasites were harvested by saponin lysis at the trophozoite stage and genomic DNA was extracted using the QIAamp DNA Blood Midi Kit (Qiagen, Germantown, MD)[71].

[2] = test system: P. falciparum Dd2 Cytb V259L; experiment: SYBR Green ABS proliferation assay, NCGC00473217 selected clone F06; type: cell-based, Plasmodium falciparum; conditions: Plasmodium falciparum
Procedure: as §1, §2, §3

[3] = test system: P. falciparum Dd2 Cytb G131S; experiment: SYBR Green ABS proliferation assay, NCGC00374598 selected clone C11; type: cell-based, Plasmodium falciparum; conditions: Plasmodium falciparum, DD2, cytochrome b mutant line, second value triple, c6; […]; read-out: log AC50, mean (converted)
Procedure: as §1, §2, §3

in vitro [4] = conditions: human, hepg2 cells
[5] = test system: luciferase-expressing P. berghei liver stage parasites in HepG2 cells; experiment: Inhibition of liver-stage development assay (ILSDA), Method 2 (WRAIR, 96-well); type: cell-based, Plasmodium berghei; conditions: for Max Resp (signal direction of the dose response): Method 2, Decrease = decreasing P. berghei viability with dose, Increase = increasing signal, Inactive = no dose response; for AC50: Plasmodium berghei, HepG2, Method 2
in vitro [6] = conditions: human, HepG2-A16-CD81EGFP cells, uninfected
HepG2 = conditions: human, hepg2 cells, 48 h
[7] = test system: Plasmodium falciparum Dd2 asexual blood stage parasites; experiment: microbe, parasite or virus in culture; parameters: species or system Plasmodium falciparum Dd2 in human erythrocytes; single determination (one 11-point concentration-response curve); conditions: Plasmodium falciparum, DD2, Erythrocyte, 72 h; read-out: AC50
[8] = test system: P. falciparum Dd2 (clone B2) asexual blood stage parasites; experiment: P. falciparum Dd2 asexual blood stage SYBR Green-I 72 h proliferation assay (qHTS); type: cell-based, Plasmodium falciparum; conditions: Plasmodium falciparum, DD2, Dd2 parental; Hill fit, averaged from three independent replicates; top concentration 29 µM; read-out: Average AC50 (Log[M]), Dd2 (converted)
[9] = test system: T1, Plasmodium falciparum Dd2-attB (parental line), asexual blood stages; experiment: microbe, parasite or virus in culture; parameters: replicate k of 3 (each line is one of three independent assays; the three lines of one compound and parasite line follow each other); conditions: n = 1
T1 construct: Dd2-attB, the isogenic parental line
Procedure, shortened: (§4)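 We compare activity in parasites carrying fumarate-using yeast DHODH with that in the parental line; mETC or parasite DHODH inhibitors are bypassed by this enzyme. Data come from three independent assays, analysed by two-sided Student's t-tests.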

[10] = test system: T2, Plasmodium falciparum Dd2-attB-ScDHODH (transgenic line expressing yeast DHODH), asexual blood stages; experiment: organism not typed; parameters: replicate k of 3 (each line is one of three independent assays; the three lines of one compound and parasite line follow each other); conditions: 72 h, n = 1
T2 construct: Dd2-attB-ScDHODH, the transgenic line that expresses yeast DHODH
Procedure, shortened: as §4

[11] = test system: P. berghei-ANKA-GFP-LucCON liver stage parasites in HepG2-A16-CD81EGFP cells; experiment: P. berghei liver stage Pb-Luc assay, Method 1 (UCSD, 1536-well); type: cell-based, Plasmodium berghei; conditions: Plasmodium berghei, 48 h, average of 2 wells on a 1536 well plate; for activity at 1 µM: 1 uM (compounds provided at 10 mM); for activity at 3 µM: 3 uM (compounds provided at 10 mM)
[12] = DD2, cytochrome b mutant line, fourth value triple, c12, […], read-out: log AC50, mean (converted)
[13] = DD2, cytochrome b mutant line, third value triple, c9, […], read-out: log AC50, mean (converted)

Structure (SMILES)	AC50 [1, 12] [M]	AC50 [2, 13] [M]	CC50 at 48 h (in vitro [4]) [µM]	Max Resp (signal direction of the dose response) [5]	viability at 48 h, 1 µM (in vitro [6]) [%]	viability at 48 h, 3 µM (in vitro [6]) [%]	Log AC50 (M) (HepG2)	AC50 [7] [µM]	also measured
O=C(Nc1ccc2c(c1)[S+](=O)([O-])N=C1CCCN12)c1ccc(F)cc1 [NCGC00537667-01]	1e-05	1.59e-05	–	–	–	–	–	–	AC50 [3]: 17.8 µM
c1ccc(Nc2nc(NCc3ccco3)c3ccccc3n2)cc1 [MLS000767881-01]	–	–	43.2	Decrease	94	80	-4.3643	1.68	AC50 ([5]; Hill fit, 50% of maximum activity response, read-out: AC50): 2.24 µM; AC50 ([5]; log10 of molar AC50 from Hill fit, read-out: Log AC50 (converted)): 2.24 µM
CCCN1C(CC(C)C)=N[S+](=O)([O-])c2cc(NC(=O)C3CCCO3)ccc21 (centres unmarked) [NCGC00521155-01]	–	–	–	–	–	–	–	–	AC50 ([1]; DD2, […], averaged from three independent replicates, top concentration 29 µM, read-out: Average AC50 (Log[M]), NCGC00473217 clone F12 (Cytb A122D) (converted)): 8.93e-06 M; AC50 [8]: 1.26e-05 M; AC50 ([2]; DD2, […], averaged from three independent replicates, top concentration 29 µM, read-out: Average AC50 (Log[M]), NCGC00473217 clone F06 (Cytb V259L) (converted)): 5.97e-06 M
Oc1cc(NCc2ccccc2)cc2cccnc12 [NCGC00183793-01]	–	–	43.2	–	91	52	-4.3643	2.99	Individual replicates / Log AC50 (M) ([9]; 72 h): -5.3986 Log AC50 (M) and -5.2986 Log AC50 (M); AC50 ([9]; Plasmodium falciparum, DD2, 72 h, read-out: Individual replicates / Log AC50 (M) (converted)): 3.56e-06 M; Individual replicates / Log AC50 (M) [10]: -5.2486 Log AC50 (M); AC50 ([10]; read-out: Individual replicates / Log AC50 (converted)): 4.48 µM
Cc1cccc(Nc2nc(NCc3ccco3)c3ccccc3n2)c1 [MLS000662793-01]	–	–	43.2	Inactive	89	74	-4.3643	4.73	activity at 1 µM ([11]; column 11, read-out: Pb-Luc (P. berghei liver stage), % of control, lower concentration, first repeat): 23%; activity at 1 µM ([11]; column 12, read-out: Pb-Luc (P. berghei liver stage), % of control, lower concentration, second repeat): 19%; activity at 3 µM ([11]; column 8, read-out: Pb-Luc (P. berghei liver stage), % of control, higher concentration, first repeat): 13%; activity at 3 µM ([11]; column 9, read-out: Pb-Luc (P. berghei liver stage), % of control, higher concentration, second repeat): 11%
CC(C)CC1=N[S+](=O)([O-])c2cc(NC(=O)c3ccc(F)cc3)ccc2N1 [NCGC00532402-01]	1.12e-06	3.99e-07	–	–	–	–	–	–	–
